What is called GI50 is the concentration at which growth is held to half of that of the control. Lower therefore signals greater sensitivity of the cells.

SMILES strings stand for the structures. Values after ≈ are worked out from the molar mass of the structure shown.

Holding throughout (format): functional
One test concerns ACHN. The experiment in a line: Cytotoxicity against human ACHN cells.
The next test concerns St-4. The experiment in a line: Cytotoxicity against human St4 cells.
Test [1] can be described thus: Cytotoxicity against human MKN1 cells. The conditions noted are these: MKN-1.
Another test relates to MKN-7. The experiment in a line: Cytotoxicity against human MKN7 cells.
A further test relates to MKN-28. Put plainly: Cytotoxicity against human MKN28 cells.
A further test deals with MKN-45. The experiment in a line: Cytotoxicity against human MKN45 cells.
A further test relates to MKN-74. The experiment in a line: Cytotoxicity against human MKN74 cells.
The test system of the next test is DU-145. Put plainly: Cytotoxicity against human DU145 cells.
In a further test the test system is OVCAR-5. The experiment in a line: Cytotoxicity against human OVCAR5 cells.
Another test has as its system PC-3. The experiment in a line: Cytotoxicity against human PC3 cells.
Test [2] is described as follows: Cytotoxicity against human HBC4 cells.
Test [3] can be described thus: Cytotoxicity against human BSY1 cells. The conditions noted are these: BSY-1.
Test [4] can be described thus: Cytotoxicity against human HBC5 cells.
A further test has as its system MCF7. Put plainly: Cytotoxicity against human MCF7 cells.
Another test relates to MDA-MB-231. The experiment in a line: Cytotoxicity against human MDA-MB-231 cells.
In the next test the test system is U-251. The experiment in a line: Cytotoxicity against human U251 cells.
For another test, the system named is SF-268. Put plainly: Cytotoxicity against human SF268 cells.
The next test has as its system SF-295. Put plainly: Cytotoxicity against human SF295 cells.
The test system of a further test is SF-539. Put plainly: Cytotoxicity against human SF539 cells.
The next test has as its system SNB-75. The experiment in a line: Cytotoxicity against human SNB75 cells.
A further test has as its system SNB-78. The experiment in a line: Cytotoxicity against human SNB78 cells.
In the next test the test system is HCC 2998. The experiment in a line: Cytotoxicity against human HCC2998 cells.
The subject of a further test is KM12. Put plainly: Cytotoxicity against human KM12 cells.
A further test deals with HT-29. The experiment in a line: Cytotoxicity against human HT29 cells.
A further test has as its system HCT-15. The experiment in a line: Cytotoxicity against human HCT15 cells.
The test system of another test is HCT-116. Put plainly: Cytotoxicity against human HCT116 cells.
Another test deals with NCI-H23. The experiment in a line: Cytotoxicity against human NCI-H23 cells.
In another test the test system is NCI-H226. Put plainly: Cytotoxicity against human NCI-H226 cells.
The subject of another test is NCI-H522. The experiment in a line: Cytotoxicity against human NCI-H522 cells.
The subject of the next test is NCI-H460. The experiment in a line: Cytotoxicity against human NCI-H460 cells.
Another test relates to A549. The experiment in a line: Cytotoxicity against human A549 cells.
For the next test, the system named is DMS-273. Put plainly: Cytotoxicity against human DMS273 cells.
A further test has as its system DMS-114. The experiment in a line: Cytotoxicity against human DMS114 cells.
The test system of another test is LOX IMVI. The experiment in a line: Cytotoxicity against human LOX IMVI cells.
Another test deals with OVCAR-3. The experiment in a line: Cytotoxicity against human OVCAR-3 cells.
In the next test the test system is OVCAR-4. Put plainly: Cytotoxicity against human OVCAR4 cells.
The test system of another test is OVCAR-8. The experiment in a line: Cytotoxicity against human OVCAR8 cells.
The test system of a further test is SK-OV-3. Put plainly: Cytotoxicity against human SKOV3 cells.
The nature of test [5]: Cytotoxicity against human RXF631L cells. The conditions noted are these: RXF 631.
Another test concerns P388. The experiment in a line: Growth inhibition of mouse P388 cells. The conditions noted are these: read-out: ED50 (the source's name).

Consider `CCCCCC[C@H](C)/C=C(C)/C=C/C(=O)N[C@]1(C=O)C[C@H]2C[C@H]([C@H](C)/C=C/[C@H](C)C(C)C)[C@@]3(C)CC[C@H]4C(=C1C(=O)C1=C[C@@H](O)CC[C@@]14C)[C@@]23O` [GYMNASTERONE A], for which the GI50 is more than 100 µM in the test with ACHN; more than 100 µM in the test with St-4; more than 75.9 µM in test [1]; 53.7 µM with MKN-7; more than 38 µM with MKN-28; more than 100 µM with MKN-45. The GI50 in the test with MKN-74 was 28.2 µM; with DU-145, more than 100 µM; in the test on OVCAR-5, more than 100 µM; in the test on PC-3 it was more than 100 µM; in test [2], more than 100 µM; in test [3] it was more than 100 µM. In addition, the concentration for 50% growth inhibition (GI50) was more than 91.2 µM in test [4]; 58.9 µM with MCF7; more than 100 µM in the test on MDA-MB-231; more than 100 µM with U-251; 21.9 µM with SF-268; 87.1 µM in the test on SF-295. Besides, the GI50 with SF-539 was 50.1 µM; with SNB-75, more than 100 µM; with SNB-78, 12.9 µM; in the test with HCC 2998 it was more than 100 µM; with KM12, more than 100 µM; in the test on HT-29, more than 100 µM. Besides, the GI50 with HCT-15 is more than 100 µM; in the test with HCT-116 it was more than 100 µM; with NCI-H23, more than 100 µM; with NCI-H226, 28.2 µM; with NCI-H522 it was 28.2 µM; in the test on NCI-H460, more than 100 µM. Further, the GI50 is more than 100 µM with A549; more than 100 µM in the test on DMS-273; 72.4 µM with DMS-114; more than 100 µM in the test with LOX IMVI; 39.8 µM in the test with OVCAR-3; 67.6 µM with OVCAR-4. Moreover, the GI50 was more than 100 µM with OVCAR-8, more than 100 µM with SK-OV-3 and 12.9 µM in [5].

As for `CC(C)[C@@H](C)/C=C/[C@@H](C)[C@H]1CC(=O)C2=C3C=CC4=CC(=O)CC[C@]4(C)[C@H]3CC[C@@]21C` [GYMNASTERONE D], the EC50 with P388 turned out to be 2.5 µg/mL (≈ 6.15 µM).

For the compound `CC(C)[C@@H](C)/C=C/[C@@H](C)[C@H]1C[C@H]2O[C@]23C2=CC(=O)[C@@H]4CC(=O)CC[C@]4(C)[C@H]2CC[C@]13C` [GYMNASTERONE B], the GI50 was more than 100 µM in the test with ACHN; more than 100 µM with St-4; 45.7 µM in test [1]; 47.9 µM in the test on MKN-7; 60.3 µM in the test with MKN-28; 72.4 µM in the test on MKN-45. Further, the GI50 in the test on MKN-74 was 83.2 µM; with DU-145, 28.8 µM; with OVCAR-5, 44.7 µM; with PC-3, 89.1 µM; in test [2], more than 100 µM; in test [3], 15.1 µM. The GI50 was 26.9 µM in test [4]; 33.9 µM in the test on MCF7; 33.1 µM with MDA-MB-231; more than 100 µM in the test with U-251; more than 100 µM in the test on SF-268; 36.3 µM in the test with SF-295. In addition, the GI50 in the test with SF-539 is more than 100 µM; in the test on SNB-75 it was 56.2 µM; in the test with SNB-78 it was more than 100 µM; in the test with HCC 2998, 51.3 µM; with KM12, 67.6 µM; in the test on HT-29 it was 30.2 µM. Further, the GI50 was 69.2 µM in the test on HCT-15; 95.5 µM in the test with HCT-116; 70.8 µM in the test on NCI-H23; 41.7 µM in the test on NCI-H226; 26.9 µM with NCI-H522; more than 100 µM with NCI-H460. Also, the 50% growth inhibitory concentration (GI50) in the test on A549 is more than 100 µM; with DMS-273 it was 41.7 µM; in the test with DMS-114 it was 12.9 µM; with LOX IMVI it was 87.1 µM; with OVCAR-3 it was 66.1 µM; in the test on OVCAR-4, 49 µM. In addition, the figures for the concentration for 50% growth inhibition (GI50) (in the test on OVCAR-8; in the test on SK-OV-3; in test [5]) were 67.6 µM, more than 100 µM and more than 100 µM, respectively. For the same compound, the EC50 in the test on P388 came out at 1.6 µg/mL (≈ 3.77 µM).

With `CC(C)[C@@H](C)/C=C/[C@@H](C)[C@H]1CCC(=O)[C@]23CC(=O)[C@@H]4CC(=O)CC[C@]4(C)[C@H]2CC[C@]13C` [DANKASTERONE B], the EC50 in the test with P388 came out at 2.8 µg/mL (≈ 6.56 µM).

On to `CC(C)[C@@H](C)/C=C/[C@@H](C)[C@H]1CC(=O)C2=C3C=CC4=C[C@@H](O)CC[C@]4(C)[C@H]3CC[C@@]21C` [GYMNASTERONE C], for which the EC50 in the test with P388 was found to be 0.9 µg/mL (≈ 2.2 µM).

On to `CC(C)[C@@H](C)/C=C/[C@@H](C)[C@H]1CCC(=O)[C@]23CC(=O)C4=CC(=O)CC[C@]4(C)[C@H]2CC[C@]13C` [DANKASTERONE A], for which the GI50 with ACHN was 2.4 µM; with St-4 it was 12.9 µM; in test [1], 1.82 µM; in the test with MKN-7, 4.57 µM; in the test with MKN-28, 3.98 µM; in the test on MKN-45 it was 11 µM. Further, the GI50 in the test on MKN-74 was 4.37 µM; in the test with DU-145 it was 4.07 µM; with OVCAR-5, 2.29 µM; with PC-3 it was 5.62 µM; in test [2] it was 4.37 µM; in test [3], 2.19 µM. The 50% growth inhibitory concentration (GI50) in test [4] is 3.31 µM; with MCF7 it was 3.72 µM; in the test with MDA-MB-231, 5.89 µM; with U-251, 3.72 µM; with SF-268, 2.82 µM; in the test on SF-295 it was 3.72 µM. The GI50 was 2.09 µM with SF-539; 4.27 µM in the test with SNB-75; 3.02 µM with SNB-78; 1.91 µM with HCC 2998; 3.72 µM in the test on KM12; 8.13 µM with HT-29. The concentration for 50% growth inhibition (GI50) in the test on HCT-15 is 2.51 µM; in the test on HCT-116 it was 2.29 µM; with NCI-H23 it was 3.8 µM; with NCI-H226 it was 3.8 µM; in the test on NCI-H522, 2.51 µM; in the test on NCI-H460, 11 µM. Moreover, the GI50 in the test with A549 was 14.1 µM; in the test on DMS-273 it was 1.7 µM; in the test on DMS-114 it was 1.7 µM; in the test with LOX IMVI, 2.19 µM; in the test on OVCAR-3 it was 2 µM; with OVCAR-4, 2.4 µM. Further, the GI50 with OVCAR-8 is 3.63 µM; in the test with SK-OV-3 it was 15.8 µM; in test [5] it was 15.8 µM. The EC50 in the test with P388 amounted to 2.2 µg/mL (≈ 5.18 µM).

For the origin of these results see ChEMBL document CHEMBL1141344, “Variation in cytostatic constituents of a sponge-derived Gymnascella dankaliensis by manipulating the carbon source” (2007).
